22 compounds from PubChem BioAssay AID256 (DTP/NCI, 2004) can be followed below.

The assay deals with CD2F1 mice, L1210 leukemia ip, survival T/C. Kind of assay: NCI In Vivo Anticancer Drug Screen. Data for tumor model L1210 Leukemia (intraperitoneal) in CD2F1 (CDF1) mice. Particulars: higher = longer survival. The procedure, abridged: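 Activity against a transplanted murine tumor was judged by comparing the compound group with a vehicle group. The outcome in the treated animals was divided by that in the controls.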

Setting [1] is: endpoint: mean survival time, dose: 100.0 mg/kg/injection, schedule: Q04DX003 (ip), vehicle: saline with Tween-80.
The mark [2] stands for this setting: endpoint: mean survival time, dose: 200.0 mg/kg/injection, schedule: Q04DX003 (ip), vehicle: saline with Tween-80.
Setting [3] is: endpoint: mean survival time, dose: 400.0 mg/kg/injection, schedule: Q04DX003 (ip), vehicle: saline with Tween-80.
Where [4] appears, read: endpoint: mean survival time, dose: 100.0 mg/kg/injection, schedule: Q04DX003 (ip), vehicle: saline.
Where [5] appears, read: endpoint: mean survival time, dose: 200.0 mg/kg/injection, schedule: Q04DX003 (ip), vehicle: saline.
Setting [6] is: endpoint: mean survival time, dose: 100.0 mg/kg/injection, schedule: Q01DX009 (ip), vehicle: saline with Tween-80.
Where [7] appears, read: endpoint: mean survival time, dose: 200.0 mg/kg/injection, schedule: Q01DX009 (ip), vehicle: saline with Tween-80.
Where [8] appears, read: endpoint: mean survival time, dose: 400.0 mg/kg/injection, schedule: Q01DX009 (ip), vehicle: saline with Tween-80.
Setting [9] is: endpoint: mean survival time, dose: 100.0 mg/kg/injection, schedule: Q01DX001 (ip), vehicle: saline.
Where [10] appears, read: endpoint: mean survival time, dose: 200.0 mg/kg/injection, schedule: Q01DX001 (ip), vehicle: saline.
The mark [11] stands for this setting: endpoint: mean survival time, dose: 400.0 mg/kg/injection, schedule: Q01DX001 (ip), vehicle: saline.
Setting [12] is: endpoint: mean survival time, dose: 50.0 mg/kg/injection, schedule: Q01DX009 (ip), vehicle: saline with Tween-80.
The mark [13] stands for this setting: endpoint: mean survival time, dose: 100.0 mg/kg/injection, schedule: Q04DX002 (ip), vehicle: saline with Tween-80.
Setting [14] is: endpoint: mean survival time, dose: 200.0 mg/kg/injection, schedule: Q04DX002 (ip), vehicle: saline with Tween-80.
[15] abbreviates: endpoint: mean survival time, dose: 400.0 mg/kg/injection, schedule: Q04DX002 (ip), vehicle: saline with Tween-80.

“And” between values parts separate entries of the source, which are not always exact repeats. Equal values may be shown once. Inconclusive results and toxic doses are left out.

Take `Cc1ccc(C(=O)/C=C/c2ccc(N(C)C)cc2)cc1`: the T/C is, setting by setting: under setting [1], 87 % of control; under setting [2], 87 % of control; under setting [3], 89 % of control.
Turning to `O=C(O)c1c(F)c(F)c2c(F)c(F)c(F)c(F)c2c1F`, the T/C reads like this: under setting [1], 93 % of control; under setting [2], 92 % of control.
For the compound `[O-]c1cc2c3c(c1)c1cc4c(cc1c[n+]3C=C2)OCO4`, the T/C (endpoint: mean survival time, dose: 3.13 mg/kg/injection, schedule: Q01DX009 (ip), vehicle: other) is 100 % of control; the T/C (endpoint: mean survival time, dose: 3.13 mg/kg/injection, schedule: Q01DX009 (ip), vehicle: water) was 114 % of control; the T/C (endpoint: mean survival time, dose: 6.25 mg/kg/injection, schedule: Q01DX009 (ip), vehicle: other) was 109 % of control; the T/C (endpoint: mean survival time, dose: 6.25 mg/kg/injection, schedule: Q01DX009 (ip), vehicle: water) is 120 % of control and 122 % of control; the T/C (endpoint: mean survival time, dose: 12.5 mg/kg/injection, schedule: Q01DX009 (ip), vehicle: other) was 110 % of control; the T/C (endpoint: mean survival time, dose: 12.5 mg/kg/injection, schedule: Q01DX009 (ip), vehicle: water) is 124 % of control. The T/C is, setting by setting: (endpoint: mean survival time, dose: 25.0 mg/kg/injection, schedule: Q01DX009 (ip), vehicle: other) 118 % of control; (endpoint: mean survival time, dose: 25.0 mg/kg/injection, schedule: Q01DX009 (ip), vehicle: water) 150 % of control; (endpoint: mean survival time, dose: 50.0 mg/kg/injection, schedule: Q01DX009 (ip), vehicle: water) 115 % of control; (endpoint: mean survival time, dose: 100.0 mg/kg/injection, schedule: Q01DX009 (ip), vehicle: water) 124 % of control.
For the compound `O=C1CN(Cl)C(=O)CN1Cl`, the T/C was 98 % of control (endpoint: mean survival time, dose: 37.5 mg/kg/injection, schedule: Q04DX002 (ip), vehicle: saline with Tween-80); 98 % of control (endpoint: mean survival time, dose: 75.0 mg/kg/injection, schedule: Q04DX002 (ip), vehicle: saline with Tween-80); 102 % of control (endpoint: mean survival time, dose: 150.0 mg/kg/injection, schedule: Q04DX002 (ip), vehicle: saline with Tween-80).
Consider `O=C(O)CC1C=CCC1` (stereo not drawn), for which the T/C reads like this: (endpoint: mean survival time, dose: 6.25 mg/kg/injection, schedule: Q04DX003 (ip), vehicle: saline) 102 % of control; (endpoint: mean survival time, dose: 12.5 mg/kg/injection, schedule: Q04DX003 (ip), vehicle: saline) 97 % of control; (endpoint: mean survival time, dose: 25.0 mg/kg/injection, schedule: Q04DX003 (ip), vehicle: saline) 97 % of control; under setting [1], 98 % of control.
Take `Cc1ccc(S(=O)(=O)CC(=O)N2CCOCC2)cc1`: the T/C is, setting by setting: under setting [4], 102 % of control; under setting [5], 96 % of control; (endpoint: mean survival time, dose: 400.0 mg/kg/injection, schedule: Q04DX003 (ip), vehicle: saline) 98 % of control.
With `CCCC(O)C(CC)[N+](=O)[O-]` (stereo not drawn), the T/C was 102 % of control (endpoint: mean survival time, dose: 100.0 mg/kg/injection, schedule: Q01DX001 (ip), vehicle: saline with Tween-80); 98 % of control (endpoint: mean survival time, dose: 200.0 mg/kg/injection, schedule: Q01DX001 (ip), vehicle: saline with Tween-80); 94 % of control (endpoint: mean survival time, dose: 400.0 mg/kg/injection, schedule: Q01DX001 (ip), vehicle: saline with Tween-80).
As for `C1CCC2C[N-]CCC2C1.C1CCC2C[N-]CCC2C1.C1CCC2C[N-]CCC2C1.C1CCC2C[N-]CCC2C1.[Cl][Rh][Cl]` (stereo not drawn), the T/C by setting is: (endpoint: mean survival time, dose: 0.25 mg/kg/injection, schedule: Q01DX009 (ip), vehicle: saline) 98 % of control; (endpoint: mean survival time, dose: 0.5 mg/kg/injection, schedule: Q01DX009 (ip), vehicle: saline with Tween-80) 92 % of control; (endpoint: mean survival time, dose: 0.5 mg/kg/injection, schedule: Q01DX009 (ip), vehicle: saline) 104 % of control; (endpoint: mean survival time, dose: 1.0 mg/kg/injection, schedule: Q01DX009 (ip), vehicle: saline with Tween-80) 96 % of control; (endpoint: mean survival time, dose: 1.0 mg/kg/injection, schedule: Q01DX009 (ip), vehicle: saline) 104 % of control; (endpoint: mean survival time, dose: 2.0 mg/kg/injection, schedule: Q01DX009 (ip), vehicle: saline with Tween-80) 96 % of control. Moreover, the T/C reads like this: (endpoint: mean survival time, dose: 2.0 mg/kg/injection, schedule: Q01DX009 (ip), vehicle: saline) 105 % of control; (endpoint: mean survival time, dose: 4.0 mg/kg/injection, schedule: Q01DX009 (ip), vehicle: saline) 113 % of control; (endpoint: mean survival time, dose: 8.0 mg/kg/injection, schedule: Q01DX009 (ip), vehicle: saline) 115 % of control.
On to `Cc1ccc(S(=O)(=O)N(C)c2ccc(I)cc2F)cc1`, for which the T/C is, setting by setting: under setting [6], 104 % of control; under setting [7], 95 % of control; under setting [8], 101 % of control.
For the compound `COC(=O)NC(S(=O)(=O)O)S(=O)(=O)O`, the T/C reads like this: under setting [9], 108 % of control; under setting [10], 101 % of control; under setting [11], 108 % of control.
`N#CC(c1cccnc1)N1CCOCC1` (stereo not drawn): the T/C reads like this: (endpoint: mean survival time, dose: 25.0 mg/kg/injection, schedule: Q01DX009 (ip), vehicle: saline with Tween-80) 98 % of control; under setting [12], 103 % of control.
In the case of `O=c1ccnc(C(F)(F)F)[nH]1`, the T/C reads like this: (endpoint: mean survival time, dose: 100.0 mg/kg/injection, schedule: Q01DX009 (ip), vehicle: saline) 101 % of control; (endpoint: mean survival time, dose: 200.0 mg/kg/injection, schedule: Q01DX009 (ip), vehicle: saline) 95 % of control.
Turning to `C/C1=C/C2=CC(C)C[C@@H]2C(=O)[C@]2(C)C(=O)CC(C)(C)[C@H]2CC1=O` (stereo partly drawn), the T/C is, setting by setting: (endpoint: mean survival time, dose: 0.13 mg/kg/injection, schedule: Q01DX009 (ip), vehicle: Klucel (hydroxypropylcellulose) (HPC)) 98 % of control; (endpoint: mean survival time, dose: 0.25 mg/kg/injection, schedule: Q01DX009 (ip), vehicle: Klucel (hydroxypropylcellulose) (HPC)) 95 % of control; (endpoint: mean survival time, dose: 0.5 mg/kg/injection, schedule: Q01DX009 (ip), vehicle: Klucel (hydroxypropylcellulose) (HPC)) 93 % of control; (endpoint: mean survival time, dose: 1.0 mg/kg/injection, schedule: Q01DX009 (ip), vehicle: Klucel (hydroxypropylcellulose) (HPC)) 90 % of control.
As to `O=C(NNC(=O)c1cccnc1)Nc1cccc(Cl)c1Cl`, the T/C runs as follows: under setting [12], 94 % of control; under setting [7], 101 % of control.
With `CCCCN(CCCC)c1cc(C(C)=O)c2ccccc2n1`, the T/C reads like this: (endpoint: mean survival time, dose: 50.0 mg/kg/injection, schedule: Q04DX003 (ip), vehicle: saline) 102 % of control; under setting [4], 102 % of control; under setting [5], 102 % of control.
On to `COc1cc(Cl)ccc1NC(=O)Nc1cccc(Cl)c1`, for which the T/C under setting [13] was 88 % of control, the T/C under setting [14] was 95 % of control and the T/C under setting [15] is 95 % of control.
As to `Cc1ccc(N/C=C\c2cc[n+](C)cc2)nc1`, the T/C (endpoint: mean survival time, dose: 75.0 mg/kg/injection, schedule: Q01DX001 (ip), vehicle: saline) was 103 % of control; the T/C (endpoint: mean survival time, dose: 150.0 mg/kg/injection, schedule: Q01DX001 (ip), vehicle: saline) is 106 % of control; the T/C (endpoint: mean survival time, dose: 300.0 mg/kg/injection, schedule: Q01DX001 (ip), vehicle: saline) was 105 % of control.
As to `OC1CC2C3C4C1C1C2C3C41` (stereo not drawn), the T/C under setting [6] is 104 % of control; the T/C under setting [1] is 107 % of control; the T/C under setting [7] is 95 % of control; the T/C under setting [2] is 98 % of control; the T/C under setting [8] is 95 % of control; the T/C under setting [3] is 97 % of control.
Consider `O=c1[nH]c(N[N+](=O)[O-])nc(-c2ccccc2)c1Br`, for which the T/C is, setting by setting: under setting [13], 103 % of control; under setting [14], 100 % of control; under setting [15], 92 % of control.
For `C/C(=C/C(=O)O)C(=O)O.[NH-]C1CCCCC1[NH-].[Pt+2]`, the T/C by setting is: (endpoint: median survival time, dose: 3.12 mg/kg/injection, schedule: Q04DX003 (ip), vehicle: saline) 100 % of control and 107 % of control; (endpoint: median survival time, dose: 6.25 mg/kg/injection, schedule: Q04DX003 (ip), vehicle: saline) 96 % of control and 109 % of control; (endpoint: median survival time, dose: 12.5 mg/kg/injection, schedule: Q04DX003 (ip), vehicle: saline) 108 % of control; (endpoint: median survival time, dose: 25.0 mg/kg/injection, schedule: Q04DX003 (ip), vehicle: saline) 116 % of control and 111 % of control; (endpoint: median survival time, dose: 50.0 mg/kg/injection, schedule: Q04DX003 (ip), vehicle: saline) 116 % of control and 120 % of control; (endpoint: median survival time, dose: 200.0 mg/kg/injection, schedule: Q04DX003 (ip), vehicle: saline) 153 % of control and 185 % of control.
On to `O=C(Nc1ccc(Cl)cc1)Oc1ccc2ccccc2c1`, for which the T/C under setting [9] is 96 % of control, the T/C under setting [10] is 94 % of control and the T/C under setting [11] was 111 % of control.
As to `CC(=O)Nc1ccc(/C=N\NC(=O)C2CC2)cc1`, the T/C was 93 % of control under setting [1], 96 % of control under setting [2] and 93 % of control under setting [3].
